Common to all, as to assay: NCI anticancer screen, dose series, 48 h
The test system of assay [1] is NCI-H226.
Assay [2] relates to A549.
Assay [3] deals with SNB-19.
The test system of assay [4] is U-251.
Assay [5] has as its system K562.
Assay [6] deals with SNB-75.
Assay [7] concerns 786-0.
Assay [8] relates to ACHN.
Assay [9] deals with SW-620.
In assay [10] the test system is OVCAR-4.
Assay [11] has as its system SK-MEL-5.
Assay [12] has as its system RXF 393.
The test system of assay [13] is UO-31.
In assay [14] the test system is HCT-15.
The subject of assay [15] is Malme-3M.
Assay [16] relates to HCC 2998.

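In this assay, cells in 96-well plates receive the compound at five concentrations for 48 hours. Endpoints are linearly interpolated between the surrounding concentrations. At the GI50, growth is halved.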 Active and inactive are the calls of the source. Rule as the data show it: active = GI50 up to about 1.1 µM and inactive = higher.

Consider `O=C1CCCCCCC2=C1C(Sc1ccccc1)CC2` (stereo not drawn), for which the GI50 in [1] is 29.5 µM (inactive); in assay [2] it was 45.5 µM (inactive); in assay [3] it was 40.3 µM (inactive); in [4], 37.1 µM (inactive); in [5] it was 27.2 µM (inactive); in assay [6] it was 21.1 µM (inactive). The GI50 was 17.7 µM (inactive) in assay [7]; 36.1 µM (inactive) in [8]; 36.3 µM (inactive) in assay [9]; 63.2 µM (inactive) in assay [10]; 30.5 µM (inactive) in assay [11]; 18.9 µM (inactive) in [12]. Further, the figures for the GI50 in assay [13], in [14] and in [15] were 18.8 µM (inactive), 31.7 µM and > 100 µM (inactive), respectively.

Consider `C#C[C@]1(O)CCC2C3CCc4cc(Oc5nc(F)nc(-n6c(C)nc7cc8ccccc8cc76)n5)ccc4C3CCC21C` (stereo partly drawn), for which the GI50 was 47.8 µM (inactive) in assay [1]; 41.5 µM (inactive) in assay [2]; 53.1 µM (inactive) in [3]; 36.2 µM (inactive) in [4]; 53.5 µM (inactive) in assay [16]; 34 µM (inactive) in assay [5]. Further, the GI50 is 35.6 µM (inactive) in [6]; 57 µM (inactive) in assay [7]; 61.4 µM (inactive) in assay [8]; 35 µM (inactive) in [9]; 35.6 µM (inactive) in assay [11]; 48.9 µM (inactive) in assay [12]. In addition, the GI50 in [13] is 75.2 µM (inactive); in assay [15], 47.3 µM (inactive).

On to `Cc1cc(C)c(-c2noc(-c3ccc(Cl)cc3)c2C2=NCCCN2)c(C)c1`, for which the GI50 in [1] was 29.9 µM (inactive); in assay [2] it was 24 µM (inactive); in assay [3], 21.3 µM (inactive); in assay [4] it was 7.57 µM (inactive); in assay [16], 15.1 µM (inactive); in assay [5] it was 14.8 µM (inactive). Moreover, the GI50 in [7] was 7.45 µM (inactive); in [8], 17.6 µM (inactive); in assay [9], 23.4 µM (inactive); in [10], 97.1 µM (inactive); in [11], 10.4 µM (inactive); in assay [12] it was 7.1 µM (inactive). Also, the GI50 was 16.2 µM (inactive) in [13], 18.5 µM in assay [14] and 19.4 µM (inactive) in assay [15].

`CC12CO[C@@](C)(CC(S(=O)(=O)c3ccccc3)C1)O2` (stereo partly drawn): the GI50 is > 100 µM (inactive) in assay [2]; > 100 µM (inactive) in [3]; > 100 µM (inactive) in assay [4]; > 100 µM (inactive) in assay [16]; > 100 µM (inactive) in [5]; 37 µM (inactive) in assay [6]. Besides, the GI50 in assay [7], in [8], in [9], in [10], in [11] and in [12] was > 100 µM (inactive) throughout. Besides, the GI50 in [13] is > 100 µM (inactive); in [14], over 100 µM; in assay [15], > 100 µM (inactive).

`COc1ccc2ccc3c(c2c1)CN1CCc2cc(OC)c(OC)cc2C1C3` (stereo not drawn): the GI50 in [1] is > 100 µM (inactive); in assay [3], > 100 µM (inactive); in assay [4], > 100 µM (inactive); in assay [16], > 100 µM (inactive); in assay [5], > 100 µM (inactive); in assay [6], 28.1 µM (inactive). For the same compound, the GI50 in [7], in assay [8], in assay [9], in assay [10], in assay [11] and in [13] was > 100 µM (inactive) each time. Also, the GI50 in assay [14] was over 100 µM; in assay [15], > 100 µM (inactive).

The values are drawn from ChEMBL document CHEMBL1201862, “PubChem BioAssay data set” (2004).
